Columns and labels:
Test in all cases: relative viability (nuclei count vs DMSO), 5 days (fraction); higher = more cells survive
[1] = compound: CC[C@H](CO)Nc1nc(NCc2ccccc2)c2ncn(C(C)C)c2n1 [Seliciclib] + CS(=O)(=O)CCNCc1ccc(-c2ccc3ncnc(Nc4ccc(OCc5cccc(F)c5)c(Cl)c4)c3c2)o1 [Lapatinib] (partner 2 µM)
How it was run: (§1)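 Medians of duplicate plates are given as relative viability. That measure is the nuclei count in treated wells divided by the count in vehicle wells. Counts were taken on 4× images of lung cancer cell lines in 1536-well plates, 5 days after pin-tool dosing the day after seeding with one drug alone or a fixed anchor-drug dose plus five library-drug doses (not always all listed) in √10 steps.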

[2] = compound: CC[C@H](CO)Nc1nc(NCc2ccccc2)c2ncn(C(C)C)c2n1 [Seliciclib] + Nc1ncn([C@H]2C[C@H](O)[C@@H](CO)O2)c(=O)n1 [Decitabine] (partner 2 µM)
How it was run: as §1

[3] = compound: CC[C@H](CO)Nc1nc(NCc2ccccc2)c2ncn(C(C)C)c2n1 [Seliciclib] + CC(C)C[C@H](NC(=O)[C@H](Cc1ccccc1)NC(=O)c1cnccn1)B(O)O [Bortezomib] (partner 0.002 µM)
How it was run: as §1

[4] = compound: CC[C@H](CO)Nc1nc(NCc2ccccc2)c2ncn(C(C)C)c2n1 [Seliciclib] + NC(=O)Nc1cc(-c2cccc(F)c2)sc1C(=O)N[C@H]1CCCNC1 [AZD7762] (partner 0.2 µM)
How it was run: as §1

Cell Line | relative viability ([1]; first compound 0.08 µM) | relative viability ([1]; first compound 0.253 µM) | relative viability ([1]; first compound 0.8 µM) | relative viability ([1]; first compound 2.53 µM) | relative viability ([1]; first compound 8 µM) | relative viability ([2]; first compound 0.08 µM) | relative viability ([2]; first compound 0.253 µM) | relative viability ([2]; first compound 0.8 µM) | relative viability ([2]; first compound 2.53 µM) | relative viability ([2]; first compound 8 µM) | relative viability ([3]; first compound 0.08 µM) | relative viability ([3]; first compound 0.253 µM) | relative viability ([3]; first compound 0.8 µM) | relative viability ([3]; first compound 2.53 µM) | relative viability ([3]; first compound 8 µM) | relative viability ([4]; first compound 0.08 µM) | relative viability ([4]; first compound 0.253 µM) | relative viability ([4]; first compound 0.8 µM) | relative viability ([4]; first compound 2.53 µM) | relative viability ([4]; first compound 8 µM)
A549 | 1 | 0.913 | 0.991 | 0.981 | 0.623 | 0.279 | 0.235 | 0.188 | 0.286 | 0.248 | – | – | – | – | – | – | – | – | – | –
COR-L23 | 0.921 | 1.14 | 0.929 | 1.12 | 0.87 | 0.395 | 0.34 | 0.478 | 0.419 | 0.403 | 1.01 | 1.1 | 0.962 | 1.06 | 0.751 | – | – | – | – | –
COR-L 105 | 0.367 | 0.347 | 0.416 | 0.311 | 0.279 | 0.568 | 0.664 | 0.648 | 0.605 | 0.557 | 0.876 | 0.961 | 0.676 | 0.535 | 0.774 | – | – | – | – | –
Calu-6 | 0.993 | 1.13 | 1.08 | 1.08 | 0.934 | – | – | – | – | – | 0.969 | 0.938 | 1.12 | 1.01 | 0.989 | – | – | – | – | –
IA-LM | 0.537 | 1.07 | 0.719 | 0.977 | 0.82 | – | – | – | – | – | 0.78 | 0.94 | 0.708 | 0.817 | 0.729 | – | – | – | – | –
LK-2 | 0.946 | 0.91 | 0.871 | 0.747 | 0.452 | 0.359 | 0.276 | 0.309 | 0.166 | 0.263 | – | – | – | – | – | 0.414 | 0.379 | 0.584 | 0.187 | 0.293
NCI-H358 | 0.429 | 0.5 | 0.407 | 0.305 | 0.253 | 0.204 | 0.216 | 0.221 | 0.193 | 0.176 | – | – | – | – | – | 0.55 | 0.577 | 0.235 | 0.462 | 0.434
NCI-H520 | 0.858 | 0.727 | 0.831 | 0.933 | 0.674 | 0.522 | 0.486 | 0.537 | 0.632 | 0.643 | 0.521 | 0.507 | 0.581 | 0.679 | 0.429 | – | – | – | – | –
NCI-H522 | – | – | – | – | – | 0.699 | 0.545 | 0.659 | 0.645 | 0.611 | – | – | – | – | – | 0.862 | 0.717 | 0.863 | 0.952 | 0.873
NCI-H661 | 0.522 | 0.463 | 0.473 | 0.452 | 0.391 | 0.552 | 0.597 | 0.549 | 0.511 | 0.435 | 0.778 | 0.871 | 0.675 | 0.79 | 0.58 | – | – | – | – | –
NCI-H1299 | 0.953 | 1.06 | 0.997 | 0.962 | 0.948 | – | – | – | – | – | 0.995 | 1.1 | 0.985 | 1.04 | 0.992 | – | – | – | – | –
NCI-H1563 | 1.03 | 0.842 | 0.957 | 0.851 | 0.845 | – | – | – | – | – | 0.856 | 0.79 | 0.892 | 0.806 | 0.861 | – | – | – | – | –
NCI-H1648 | – | – | – | – | – | 0.486 | 0.615 | 0.605 | 0.45 | 0.473 | – | – | – | – | – | 0.775 | 1.06 | 0.758 | 0.826 | 0.71
NCI-H1650 | 0.769 | 0.889 | 0.725 | 0.621 | 0.347 | 0.439 | 0.278 | 0.437 | 0.403 | 0.52 | 0.214 | 0.217 | 0.2 | 0.21 | 0.178 | – | – | – | – | –
NCI-H2009 | 0.944 | 1.04 | 0.889 | 0.772 | 0.721 | 0.378 | 0.42 | 0.402 | 0.371 | 0.415 | 1.05 | 1.21 | 0.908 | 0.911 | 0.941 | – | – | – | – | –
NCI-H2023 | 0.932 | 0.991 | 0.732 | 0.406 | 0.451 | 0.217 | 0.216 | 0.203 | 0.267 | 0.248 | 0.998 | 1.1 | 1.1 | 0.747 | 0.84 | – | – | – | – | –
NCI-H2228 | 1.07 | 1.35 | 1.02 | 1.2 | 0.847 | – | – | – | – | – | 1.05 | 0.943 | 0.954 | 0.978 | 0.713 | – | – | – | – | –
NCI-H2342 | – | – | – | – | – | 0.668 | 0.637 | 0.736 | 0.649 | 0.747 | – | – | – | – | – | 0.565 | 0.509 | 0.486 | 0.404 | 0.427
SK-LU-1 | 0.847 | 0.971 | 0.812 | 0.775 | 0.666 | 0.614 | 0.544 | 0.649 | 0.614 | 0.542 | 1.07 | 1.23 | 1.3 | 1.08 | 0.771 | – | – | – | – | –
SK-MES-1 | 0.476 | 0.397 | 0.404 | 0.489 | 0.446 | 0.386 | 0.371 | 0.349 | 0.451 | 0.458 | – | – | – | – | – | – | – | – | – | –
SW 900 | – | – | – | – | – | 0.45 | 0.403 | 0.457 | 0.478 | 0.346 | – | – | – | – | – | 0.537 | 0.616 | 0.704 | 0.647 | 0.559
SW 1573 | 1.09 | 1.06 | 1.02 | 1.1 | 0.869 | 0.497 | 0.515 | 0.474 | 0.408 | 0.663 | 0.923 | 0.876 | 1.02 | 1.02 | 0.868 | – | – | – | – | –
UMC-11 | 1.02 | 0.981 | 1.09 | 0.96 | 0.824 | 0.542 | 0.392 | 0.612 | 0.606 | 0.526 | 0.715 | 0.932 | 0.831 | 0.827 | 0.529 | – | – | – | – | –
